Results taken from patent US6355799B1, “Substituted benzene compounds, process for their preparation, and herbicidal and defoliant compositions containing them” (ISK Americas Incorporated, priority 1997, dated 2002).

Tests used:
Type in all cases: in vivo
[1] = system: redroot pigweed (Amaranthus retroflexus, AMARE); assay: Pre-emerge test, greenhouse herbicide activity screening; conditions: phytotoxicity rating 0-100, 14 days after application
Procedure, shortened: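 Compounds in acetone were track-sprayed at 15-1000 g ai/ha (187 l/ha) on sandy loam pots: pre-emerge one day after seeding, post-emerge at 2-3 leaf stage with 0.25% v/v non-ionic surfactant. Phytotoxicity was rated 14 days later on a 0 (no damage) to 100 (complete death) scale.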

[2] = system: field corn (Zea mays L., var. Dekalb 535, CORN); assay: Pre-emerge test, crop safety; conditions: crop damage rating 0-100, 14 days after application
Procedure, shortened: (§1)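 Sandy loam pots; pre-emerge: sown 1 d pre-spray, surface-watered after, then bottom-watered. Post-emerge: sown 8–21 d before, 2–3 leaf stage, + 0.25% v/v NIS, bottom-watered. Acetone, 187 l/ha track spray, 15–1000 g ai/ha. 0–100 injury score, day 14.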

[3] = system: upland rice (Oryza sp., var. Tebonnet, RICE); assay: Pre-emerge test, crop safety; conditions: crop damage rating 0-100, 14 days after application
Procedure, shortened: as §1

[4] = system: large crabgrass (Digitaria sanguinalis, DIGSA); assay: Post-emerge test, greenhouse herbicide activity screening; conditions: post-emerge, 14 days after application, rating scale 0-100
Procedure, shortened: (§2)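 Plants grown in 10 cm pots of sandy loam mix received acetone-dissolved compounds through a moving flat-fan nozzle. Doses ranged from 15 to 1000 g ai/ha. Pre-emerge pots were seeded one day earlier, post-emerge pots 8–21 days earlier. Fourteen days on, each pot was graded 0–100 for damage.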

[5] = system: ivyleaf morningglory (Ipomoea hederacea, IPOHE); assay: as above; conditions: post-emerge, 14 days after application, rating scale 0-100
Procedure, shortened: as §2

[6] = system: lambsquarters (Chenopodium album, CHEAL); assay: as above; conditions: post-emerge, 14 days after application, rating scale 0-100
Procedure, shortened: as §2

[7] = system: green foxtail (Setaria viridis, SETVI); assay: as above; conditions: post-emerge, 14 days after application, rating scale 0-100
Procedure, shortened: as §2

[8] = system: sicklepod (Cassia obtusifolia, CASOB); assay: as above; conditions: post-emerge, 14 days after application, rating scale 0-100
Procedure, shortened: as §2

[9] = system: redroot pigweed (Amaranthus retroflexus, AMARE); assay: as above; conditions: post-emerge, 14 days after application
Procedure, shortened: as §2

[10] = system: common ragweed (Ambrosia artemisizfolia L., AMBEL); assay: as above; conditions: post-emerge, 14 days after application, rating scale 0-100
Procedure, shortened: as §2

[11] = system: johnsongrass (Sorghum halepense, SORHA); assay: as above; conditions: post-emerge, 14 days after application, rating scale 0-100
Procedure, shortened: as §2

[12] = system: velvetleaf (Abutilon theophrasti, ABUTH); assay: as above; conditions: post-emerge, 14 days after application, rating scale 0-100
Procedure, shortened: as §2

[13] = system: barnyardgrass (Echinochloa crus-galli, ECHCG); assay: as above; conditions: post-emerge, 14 days after application, rating scale 0-100
Procedure, shortened: as §2

[14] = system: field corn (Zea mays L., var. Dekalb 535, CORN); assay: Post-emerge test, crop safety; conditions: post-emerge, 14 days after application, rating scale 0-100
Procedure, shortened: (§3)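 Applied at 15–1000 g ai/ha from acetone in 187 l/ha spray volume. Post-emergence applications included 0.25% v/v non-ionic surfactant and reached plants sown 8–21 days before. Pre-emergence applications were incorporated by surface watering. Efficacy or crop damage was rated on a 0–100 scale after 14 days.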

[15] = system: upland rice (Oryza sp., var. Tebonnet, RICE); assay: Post-emerge test, crop safety; conditions: post-emerge, 63 g ai/ha, 14 days after application, rating scale 0-100
Procedure, shortened: as §3

[16] = system: large crabgrass (Digitaria sanguinalis, DIGSA); assay: Pre-emerge test, greenhouse herbicide activity screening; conditions: phytotoxicity rating 0-100, 14 days after application
Procedure, shortened: as §3

[17] = system: ivyleaf morningglory (Ipomoea hederacea, IPOHE); assay: as above; conditions: phytotoxicity rating 0-100, 14 days after application
Procedure, shortened: as §3

[18] = system: lambsquarters (Chenopodium album, CHEAL); assay: as above; conditions: phytotoxicity rating 0-100, 14 days after application
Procedure, shortened: as §3

[19] = system: green foxtail (Setaria viridis, SETVI); assay: as above; conditions: phytotoxicity rating 0-100, 14 days after application
Procedure, shortened: as §3

[20] = system: sicklepod (Cassia obtusifolia, CASOB); assay: as above; conditions: phytotoxicity rating 0-100, 14 days after application
Procedure, shortened: as §3

[21] = system: common ragweed (Ambrosia artemisizfolia L., AMBEL); assay: as above; conditions: phytotoxicity rating 0-100, 14 days after application
Procedure, shortened: as §3

[22] = system: johnsongrass (Sorghum halepense, SORHA); assay: as above; conditions: phytotoxicity rating 0-100, 14 days after application
Procedure, shortened: as §3

[23] = system: velvetleaf (Abutilon theophrasti, ABUTH); assay: as above; conditions: phytotoxicity rating 0-100, 14 days after application
Procedure, shortened: as §3

[24] = system: barnyardgrass (Echinochloa crus-galli, ECHCG); assay: as above; conditions: phytotoxicity rating 0-100, 14 days after application
Procedure, shortened: as §3

2-(4-chloro-3-ethoxy-6-fluoro-2-naphthoylamidophenyl)-1-methyl-6-trifluoromethyl-2,4(1H, 3H)-pyrimidinedione [Compound 2-196]
Pre-emerge Herbicidal Activity AMARE ([1]; 63 g ai/ha): 100 | Pre-emerge Herbicidal Activity AMARE ([1]; 250 g ai/ha): 100 | Pre-emerge Herbicidal Activity CORN ([2]; 63 g ai/ha): 0 | Pre-emerge Herbicidal Activity CORN ([2]; 250 g ai/ha): 0 | Pre-emerge Herbicidal Activity RICE ([3]; 63 g ai/ha): 20 | Pre-emerge Herbicidal Activity RICE ([3]; 250 g ai/ha): 50 | phytotoxicity rating DIGSA ([4]; 63 g ai/ha): 10 | phytotoxicity rating DIGSA ([4]; 250 g ai/ha): 20 | phytotoxicity rating IPOHE ([5]; 63 g ai/ha): 90 | phytotoxicity rating IPOHE ([5]; 250 g ai/ha): 100 | phytotoxicity rating CHEAL ([6]; 63 g ai/ha): 100 | phytotoxicity rating CHEAL ([6]; 250 g ai/ha): 100 | phytotoxicity rating SETVI ([7]; 63 g ai/ha): 30 | phytotoxicity rating SETVI ([7]; 250 g ai/ha): 20 | phytotoxicity rating CASOB ([8]; 63 g ai/ha): 100 | phytotoxicity rating CASOB ([8]; 250 g ai/ha): 100 | phytotoxicity rating AMARE ([9]; 63 g ai/ha, rating scale 0-100 (0 no damage, 100 complete death)): 100 | phytotoxicity rating AMARE ([9]; 250 g ai/ha, rating scale 0-100): 100 | phytotoxicity rating AMBEL ([10]; 63 g ai/ha): 100 | phytotoxicity rating AMBEL ([10]; 250 g ai/ha): 90 | phytotoxicity rating SORHA ([11]; 63 g ai/ha): 10 | phytotoxicity rating SORHA ([11]; 250 g ai/ha): 10 | phytotoxicity rating ABUTH ([12]; 63 g ai/ha): 100 | phytotoxicity rating ABUTH ([12]; 250 g ai/ha): 100 | phytotoxicity rating ECHCG ([13]; 63 g ai/ha): 10 | phytotoxicity rating ECHCG ([13]; 250 g ai/ha): 10 | phytotoxicity rating CORN (crop damage) ([14]; 63 g ai/ha): 10 | phytotoxicity rating CORN (crop damage) ([14]; 250 g ai/ha): 15 | phytotoxicity rating RICE (crop damage) [15]: 30 | Pre-emerge Herbicidal Activity DIGSA ([16]; 63 g ai/ha): 90 | Pre-emerge Herbicidal Activity DIGSA ([16]; 250 g ai/ha): 100 | Pre-emerge Herbicidal Activity IPOHE ([17]; 63 g ai/ha): 20 | Pre-emerge Herbicidal Activity IPOHE ([17]; 250 g ai/ha): 70 | Pre-emerge Herbicidal Activity CHEAL ([18]; 63 g ai/ha): 100 | Pre-emerge Herbicidal Activity CHEAL ([18]; 250 g ai/ha): 100 | Pre-emerge Herbicidal Activity SETVI ([19]; 63 g ai/ha): 90 | Pre-emerge Herbicidal Activity SETVI ([19]; 250 g ai/ha): 100 | Pre-emerge Herbicidal Activity CASOB ([20]; 63 g ai/ha): 0 | Pre-emerge Herbicidal Activity CASOB ([20]; 250 g ai/ha): 60 | Pre-emerge Herbicidal Activity AMBEL ([21]; 63 g ai/ha): 30 | Pre-emerge Herbicidal Activity AMBEL ([21]; 250 g ai/ha): 90 | Pre-emerge Herbicidal Activity SORHA ([22]; 63 g ai/ha): 10 | Pre-emerge Herbicidal Activity SORHA ([22]; 250 g ai/ha): 20 | Pre-emerge Herbicidal Activity ABUTH ([23]; 63 g ai/ha): 100 | Pre-emerge Herbicidal Activity ABUTH ([23]; 250 g ai/ha): 100 | Pre-emerge Herbicidal Activity ECHCG ([24]; 63 g ai/ha): 40 | Pre-emerge Herbicidal Activity ECHCG ([24]; 250 g ai/ha): 85
